Measured values: PubChem BioAssay AID248 (DTP/NCI, 2004)
Several values for one entry are separate records, joined by “and”; a condition that tells them apart may be missing. Equal entries are not always repeated. Toxic doses and inconclusive results are not listed.

Tested on: L1210 leukemia ip in BDF1 mice, survival T/C
Experiment: NCI In Vivo Anticancer Drug Screen. Data for tumor model L1210 Leukemia (intraperitoneal) in B6D2F1 (BDF1) mice
Details: endpoint: mean survival time, higher = longer survival
How it was run: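 Antitumor effect is assessed in tumor-bearing animals. Survival in the compound arm is compared with a vehicle-dosed control arm and expressed as their quotient.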

[1] = dose: 12.5 mg/kg/injection, schedule: Q04DX003 (ip), vehicle: Klucel (hydroxypropylcellulose) (HPC)
[2] = dose: 25.0 mg/kg/injection, schedule: Q01DX009 (ip), vehicle: Klucel (hydroxypropylcellulose) (HPC)
[3] = dose: 25.0 mg/kg/injection, schedule: Q04DX003 (ip), vehicle: Klucel (hydroxypropylcellulose) (HPC)
[4] = dose: 50.0 mg/kg/injection, schedule: Q01DX009 (ip), vehicle: Klucel (hydroxypropylcellulose) (HPC)
[5] = dose: 50.0 mg/kg/injection, schedule: Q04DX003 (ip), vehicle: Klucel (hydroxypropylcellulose) (HPC)
[6] = dose: 100.0 mg/kg/injection, schedule: Q01DX009 (ip), vehicle: Klucel (hydroxypropylcellulose) (HPC)
[7] = dose: 50.0 mg/kg/injection, schedule: Q01DX001 (ip), vehicle: saline
[8] = dose: 100.0 mg/kg/injection, schedule: Q01DX001 (ip), vehicle: saline
[9] = dose: 200.0 mg/kg/injection, schedule: Q01DX001 (ip), vehicle: saline
[10] = dose: 400.0 mg/kg/injection, schedule: Q01DX001 (ip), vehicle: saline
[11] = dose: 100.0 mg/kg/injection, schedule: Q01DX001 (ip), vehicle: saline with Tween-80
[12] = dose: 100.0 mg/kg/injection, schedule: Q04DX002 (ip), vehicle: saline with Tween-80
[13] = dose: 200.0 mg/kg/injection, schedule: Q01DX001 (ip), vehicle: saline with Tween-80
[14] = dose: 200.0 mg/kg/injection, schedule: Q04DX002 (ip), vehicle: saline with Tween-80
[15] = dose: 400.0 mg/kg/injection, schedule: Q01DX001 (ip), vehicle: saline with Tween-80
[16] = dose: 400.0 mg/kg/injection, schedule: Q04DX002 (ip), vehicle: saline with Tween-80
[17] = dose: 12.5 mg/kg/injection, schedule: Q01DX001 (ip), vehicle: saline
[18] = dose: 100.0 mg/kg/injection, schedule: Q04DX003 (ip), vehicle: saline
[19] = dose: 200.0 mg/kg/injection, schedule: Q04DX003 (ip), vehicle: saline
[20] = dose: 12.5 mg/kg/injection, schedule: Q01DX009 (ip), vehicle: saline
[21] = dose: 25.0 mg/kg/injection, schedule: Q01DX009 (ip), vehicle: saline
[22] = dose: 50.0 mg/kg/injection, schedule: Q01DX009 (ip), vehicle: saline
[23] = dose: 100.0 mg/kg/injection, schedule: Q04DX003 (ip), vehicle: Klucel (hydroxypropylcellulose) (HPC)
[24] = dose: 400.0 mg/kg/injection, schedule: Q04DX003 (ip), vehicle: Klucel (hydroxypropylcellulose) (HPC)
[25] = dose: 100.0 mg/kg/injection, schedule: Q04DX003 (ip), vehicle: saline with Tween-80

In the case of O=NC1C(Cl)C2CC1C1C(Br)C(Br)CC21 (stereo not given), the T/C [1] is reported as 100 % of control, the T/C [2] is reported as 93 % of control and the T/C [3] is reported as 102 % of control. The T/C (dose: 50.0 mg/kg/injection, schedule: Q01DX001 (ip), vehicle: Klucel (hydroxypropylcellulose) (HPC)) was 95 % of control, the T/C [4] was 93 % of control and the T/C [5] was 100 % of control. The T/C (dose: 100.0 mg/kg/injection, schedule: Q01DX001 (ip), vehicle: Klucel (hydroxypropylcellulose) (HPC)) was 92 % of control, the T/C [6] was 88 % of control and the T/C (dose: 150.0 mg/kg/injection, schedule: Q01DX009 (ip), vehicle: saline) was 90 % of control. For the same compound, the T/C (dose: 200.0 mg/kg/injection, schedule: Q01DX001 (ip), vehicle: Klucel (hydroxypropylcellulose) (HPC)) was 89 % of control and the T/C (dose: 335.0 mg/kg/injection, schedule: Q01DX009 (ip), vehicle: saline) was 94 % of control.

In the case of CCC(C)c1cc(CN(C)C)cc(C(C)CC)c1O (stereo not given), the T/C (dose: 12.5 mg/kg/injection, schedule: Q01DX009 (ip), vehicle: Klucel (hydroxypropylcellulose) (HPC)) is reported as 105 % of control, the T/C [2] is reported as 105 % of control and the T/C [4] is reported as 96 % of control. The T/C [6] was 102 % of control.

With Cn1ncc2c(N(N)CCO)nc(-c3ccc([N+](=O)[O-])o3)nc21 the T/C [7] was 108 % of control, the T/C [8] was 108 % of control and the T/C [9] was 104 % of control. For the same compound, the T/C [10] was 117 % of control.

For CC(=O)Oc1ccccc1C1OC(=O)c2ccccc2N1C(C)=O (stereo not given), the T/C [11] was 106 % of control, the T/C (dose: 100.0 mg/kg/injection, schedule: Q01DX009 (ip), vehicle: saline with Tween-80) was 101 % of control and 103 % of control and the T/C [12] was 105 % of control and 87 % of control. The T/C [13] was 104 % of control, the T/C (dose: 200.0 mg/kg/injection, schedule: Q01DX009 (ip), vehicle: saline with Tween-80) was 93 % of control and 102 % of control and the T/C [14] was 96 % of control and 97 % of control. For the same compound, the T/C [15] was 103 % of control, the T/C (dose: 400.0 mg/kg/injection, schedule: Q01DX009 (ip), vehicle: saline with Tween-80) was 93 % of control and the T/C [16] was 94 % of control and 105 % of control.

CCN(CC)CCN1C(=O)c2ccc3c4c(ccc(c24)C1=O)C(=O)N(CCN(CC)CC)C3=O was tested, and the T/C (dose: 6.25 mg/kg/injection, schedule: Q01DX001 (ip), vehicle: saline) was 105 % of control and the T/C [17] was 98 % of control.

NCCS(=O)c1ccccc1 (stereo not given) was tested, and the T/C [18] was 96 % of control, the T/C [19] was 96 % of control and the T/C (dose: 400.0 mg/kg/injection, schedule: Q04DX003 (ip), vehicle: saline) was 113 % of control.

With O=C(NP(=O)(N1CC1)N1CC1)OCc1ccccc1 the T/C (dose: 3.0 mg/kg/injection, schedule: Q01DX Z (ip), vehicle: saline) was 118 % of control and 122 % of control, the T/C (dose: 3.13 mg/kg/injection, schedule: Q01DX006 (iv), vehicle: clinical formulation) was 118 % of control and the T/C (dose: 3.13 mg/kg/injection, schedule: Q01DX009 (ip), vehicle: saline) was 118 % of control and 120 % of control. For the same compound, the T/C (dose: 6.0 mg/kg/injection, schedule: Q01DX Z (ip), vehicle: saline) was 104 % of control, the T/C (dose: 6.25 mg/kg/injection, schedule: Q01DX006 (iv), vehicle: clinical formulation) was 115 % of control and the T/C (dose: 6.25 mg/kg/injection, schedule: Q01DX009 (ip), vehicle: saline) was 109 % of control and 121 % of control. The T/C (dose: 10.0 mg/kg/injection, schedule: Q01DX006 (iv), vehicle: saline) was 117 % of control, the T/C (dose: 12.0 mg/kg/injection, schedule: Q01DX Z (ip), vehicle: saline) was 196 % of control and the T/C [17] was 93 % of control. For the same compound, the T/C (dose: 12.5 mg/kg/injection, schedule: Q01DX006 (iv), vehicle: clinical formulation) was 120 % of control, the T/C [20] was 97 % of control and 114 % of control and the T/C (dose: 20.0 mg/kg/injection, schedule: Q01DX006 (iv), vehicle: saline) was 117 % of control. For the same compound, the T/C (dose: 25.0 mg/kg/injection, schedule: Q01DX001 (ip), vehicle: saline) was 93 % of control, the T/C [21] was 101 % of control and 109 % of control and the T/C (dose: 48.0 mg/kg/injection, schedule: Q01DX Z (ip), vehicle: saline) was 123 % of control. The T/C [7] was 103 % of control, the T/C (dose: 50.0 mg/kg/injection, schedule: Q01DX006 (iv), vehicle: clinical formulation) was 153 % of control and the T/C [22] was 124 % of control. The T/C (dose: 50.0 mg/kg/injection, schedule: Q01DX010 (oral), vehicle: saline) was 100 % of control, the T/C (dose: 80.0 mg/kg/injection, schedule: Q01DX006 (iv), vehicle: saline) was 156 % of control and the T/C [8] was 98 % of control. The T/C (dose: 100.0 mg/kg/injection, schedule: Q01DX010 (oral), vehicle: saline) was 111 % of control, the T/C (dose: 200.0 mg/kg/injection, schedule: Q01DX010 (oral), vehicle: saline) was 105 % of control and the T/C (dose: 400.0 mg/kg/injection, schedule: Q01DX010 (oral), vehicle: saline) was 106 % of control.

CCC1(c2ccccc2)NC(=O)N(C)C1=O (stereo not given) was tested, and the T/C [6] was 97 % of control, the T/C [23] was 100 % of control and the T/C (dose: 200.0 mg/kg/injection, schedule: Q01DX009 (ip), vehicle: Klucel (hydroxypropylcellulose) (HPC)) was 110 % of control. The T/C (dose: 200.0 mg/kg/injection, schedule: Q04DX003 (ip), vehicle: Klucel (hydroxypropylcellulose) (HPC)) was 95 % of control and the T/C [24] was 90 % of control.

For CCN(CC)CCCC#N, the T/C [7] was 100 % of control, the T/C [8] was 105 % of control and the T/C [9] was 102 % of control.

Oc1cccnc1I was tested, and the T/C [7] was 102 % of control, the T/C [8] was 98 % of control and the T/C [9] was 98 % of control. The T/C [10] was 102 % of control.

O=C(/C=C(\CN1CCCCC1)c1ccccc1)c1ccccc1 was tested, and the T/C [23] was 96 % of control and the T/C [24] was 96 % of control.

With OCC(O)C(O)C(O)C(O)CN=Cc1ccccc1O (stereo not given) the T/C [12] was 109 % of control, the T/C [14] was 95 % of control and the T/C [16] was 103 % of control.

CCCCC(CC)C1N(C)CCCN1C (stereo not given) was tested, and the T/C [25] was 92 % of control and the T/C (dose: 200.0 mg/kg/injection, schedule: Q04DX003 (ip), vehicle: saline with Tween-80) was 98 % of control.

For CCCCCCc1cc(N=Nc2ccc(S(=O)(=O)Nc3nccc(C)n3)cc2)c(O)cc1O, the T/C (dose: 100.0 mg/kg/injection, schedule: Q01DX001 (ip), vehicle: carboxymethylcellulose (CMC)) was 95 % of control, the T/C (dose: 200.0 mg/kg/injection, schedule: Q01DX001 (ip), vehicle: carboxymethylcellulose (CMC)) was 98 % of control and the T/C (dose: 400.0 mg/kg/injection, schedule: Q01DX001 (ip), vehicle: carboxymethylcellulose (CMC)) was 93 % of control.

With CCN(CC)CCOc1ccc(-c2ccccc2)cc1 the T/C (dose: 50.0 mg/kg/injection, schedule: Q04DX003 (ip), vehicle: saline with Tween-80) was 98 % of control and the T/C [25] was 277 % of control.

For COC(=O)[c-]1[c-][c-][c-][c-]1.COC(=O)[c-]1[c-][c-][c-][c-]1.[Fe], the T/C [1] was 94 % of control, the T/C [3] was 90 % of control and the T/C [5] was 90 % of control. For the same compound, the T/C (dose: 75.0 mg/kg/injection, schedule: Q01DX009 (ip), vehicle: Klucel (hydroxypropylcellulose) (HPC)) was 103 % of control and the T/C (dose: 115.0 mg/kg/injection, schedule: Q01DX009 (ip), vehicle: Klucel (hydroxypropylcellulose) (HPC)) was 93 % of control.

For NCCCC1C2CCC(C2)C1CN (stereo not given), the T/C (dose: 100.0 mg/kg/injection, schedule: Q04DX002 (ip), vehicle: alcohol) was 98 % of control.

In the case of O=S(=O)(F)c1cc(Cl)c(S)c(Cl)c1, the T/C [6] is reported as 100 % of control.

With CCCCOCCN the T/C [20] was 104 % of control, the T/C [21] was 101 % of control and the T/C [22] was 106 % of control.

Cc1cc(SCC(=O)c2ccc(Br)cc2)cc(C)[o+]1 was tested, and the T/C [21] was 92 % of control, the T/C [22] was 107 % of control and the T/C (dose: 100.0 mg/kg/injection, schedule: Q01DX009 (ip), vehicle: saline) was 100 % of control. For the same compound, the T/C [18] was 97 % of control and the T/C [19] was 92 % of control.

CCN(CC)CCCNC(c1ccccc1)C(Cl)(Cl)Cl (stereo not given) was tested, and the T/C [8] was 96 % of control.

CN(C)C(=O)Sc1ccc(SC(=O)N(C)C)cc1 was tested, and the T/C [11] was 97 % of control, the T/C [13] was 97 % of control and the T/C [15] was 97 % of control.
